Columns and labels:
[1] = biological target: T1, human FPRL2 (Homo sapiens, UniProt P25089); assay: Intracellular calcium measurements (FLIPR), agonistic activity in HEK293-hFPRL2-Gα16 cells; assay type: cell-based; conditions: Fluo-4 calcium FLIPR, normalized to GLY14-Humanin 100 nM
T1 construct: expressed in transfected cells; host or cells: HEK293 (HEK293-hFPRL2-Gα16)
T1 sequence (P25089 1-353): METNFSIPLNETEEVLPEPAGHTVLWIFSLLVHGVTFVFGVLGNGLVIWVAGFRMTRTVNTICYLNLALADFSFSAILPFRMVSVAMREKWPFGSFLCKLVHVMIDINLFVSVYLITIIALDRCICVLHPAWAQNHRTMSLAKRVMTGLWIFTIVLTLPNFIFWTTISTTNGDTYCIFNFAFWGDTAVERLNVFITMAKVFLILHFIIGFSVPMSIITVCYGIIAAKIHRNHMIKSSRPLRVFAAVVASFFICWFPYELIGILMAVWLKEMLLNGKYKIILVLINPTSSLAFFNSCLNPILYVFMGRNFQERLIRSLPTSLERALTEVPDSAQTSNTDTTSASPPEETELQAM
Outline: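 Peak values after baseline subtraction are expressed relative to 100 nM Gly14-Humanin; compounds diluted in assay buffer from 10 mM DMSO stocks.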

[2] = biological target: T2, human ALX receptor (Homo sapiens, UniProt P25090); assay: Intracellular calcium measurements (FLIPR), agonistic activity in HEK293-hALXR-Gα16 cells; assay type: cell-based; conditions: Fluo-4 calcium FLIPR, normalized to WKYMVm 10 nM
T2 construct: expressed in transfected cells; host or cells: HEK293 (HEK293-hALXR-Gα16)
T2 sequence (P25090 1-351): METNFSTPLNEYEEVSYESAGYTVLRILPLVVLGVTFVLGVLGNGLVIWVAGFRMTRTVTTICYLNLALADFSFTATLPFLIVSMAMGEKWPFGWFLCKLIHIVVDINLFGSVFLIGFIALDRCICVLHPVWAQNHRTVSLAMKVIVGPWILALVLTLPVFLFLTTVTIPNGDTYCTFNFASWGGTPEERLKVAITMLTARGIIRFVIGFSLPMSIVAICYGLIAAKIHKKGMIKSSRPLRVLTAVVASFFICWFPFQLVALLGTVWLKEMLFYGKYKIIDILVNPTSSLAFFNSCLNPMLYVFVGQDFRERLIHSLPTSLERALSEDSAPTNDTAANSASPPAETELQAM
Outline: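 HEK293 cells expressing hALXR and Gα16 were loaded with 1 μM Fluo-4 AM and 20 mM HEPES for 60 min at 37°C, then exposed to serially diluted compound. FLIPR fluorescence was read at ex 488/em 540 nm. Baseline-subtracted peak responses were normalized to 10 nM WKYMVm.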

EC50 [1]	EC50 [2]	SMILES
165 nM	1740 nM	O=C(NCCCCN1CCCC1)[C@H]1[C@H](C(=O)NCCC2=CCCCC2)[C@@H]2C=C[C@H]1C21CC1 (racemic) [Example 341, (5R*)—N^5-(2-(Cyclohexen-1-yl)ethyl)-(6R*)—N^6-(4-pyrrolidino-butyl)-(4S*,7R*)-[4,7-ethenylene-spiro[2.4]heptane]-5,6-dicarboxamide]
885 nM	> 2390 nM	O=C(NCCCCN1CCCC1)[C@H]1[C@H](C(=O)NCCc2ccccn2)[C@@H]2C=C[C@H]1C21CC1 (racemic) [Example 343, (5R*)—N^5-(2-(Pyridin-2-yl)ethyl)-(6R*)—N^6-(4-pyrrolidino-butyl)-(4S*,7R*)-[4,7-ethenylene-spiro[2.4]heptane]-5,6-dicarboxamide]
414 nM	7850 nM	CC(=O)c1csc(NC(=O)[C@H]2[C@H](C(=O)NCCCCN3CCCC3)[C@H]3C=C[C@@H]2C32CC2)n1 (racemic) [Example 344, (5R*)—N^5-(4-Acetyl-thiazol-2-yl)-(6R*)—N^6-(4-pyrrolidino-butyl)-(4S*,7R*)-[4,7-ethenylene-spiro[2.4]heptane]-5,6-dicarboxamide]
734 nM	> 25000 nM	O=C(NCCCCN1CCCC1)[C@H]1[C@H](C(=O)Nc2nc(C(F)(F)F)cs2)[C@@H]2C=C[C@H]1C21CC1 (racemic) [Example 345, (5R*)—N^5-(4-Trifluoromethyl-thiazol-2-yl)-(6R*)—N^6-(4-pyrrolidino-butyl)-(4S*,7R*)-[4,7-ethenylene-spiro[2.4]heptane]-5,6-dicarboxamide]
508 nM	1540 nM	O=C(NCCCCN1CCCC1)[C@H]1[C@H](C(=O)NCc2c(F)cc(F)cc2F)[C@@H]2C=C[C@H]1C21CC1 (racemic) [Example 346, (5R*)—N^5-(2,4,6-Trifluorophenyl-methyl)-(6R*)—N^6-(4-pyrrolidino-butyl)-(4S*,7R*)-[4,7-ethenylene-spiro[2.4]heptane]-5,6-dicarboxamide]
417 nM	1800 nM	Cc1ccc(CNC(=O)[C@H]2[C@H](C(=O)NCCCCN3CCCC3)[C@H]3C=C[C@@H]2C32CC2)c(C)c1 (racemic) [Example 347, (5R*)—N^5-(2,4-Dimethylphenyl-methyl)-(6R*)—N^6-(4-pyrrolidino-butyl)-(4S*,7R*)-[4,7-ethenylene-spiro[2.4]heptane]-5,6-dicarboxamide]
219 nM	3230 nM	CC(=O)c1nc(CNC(=O)[C@H]2[C@H](C(=O)NCCCCN3CCCC3)[C@H]3C=C[C@@H]2C32CC2)cs1 (racemic) [Example 348, (5R*)—N^5-[(2-Acetyl-thiazol-4-yl)methyl]-(6R*)—N^6-(4-pyrrolidino-butyl)-(4S*,7R*)-[4,7-ethenylene-spiro[2.4]heptane]-5,6-dicarboxamide]
200 nM	4720 nM	O=C(NCCCCN1CCCC1)[C@H]1[C@H](C(=O)NCc2cccc(Cl)c2F)[C@@H]2C=C[C@H]1C21CC1 (racemic) [Example 349, (5R*)—N^5-(3-Chloro-2-fluorophenyl-methyl)-(6R*)—N^6-(4-pyrrolidino-butyl)-(4S*,7R*)-[4,7-ethenylene-spiro[2.4]heptane]-5,6-dicarboxamide]
444 nM	5730 nM	Cc1coc(NC(=O)[C@H]2[C@H](C(=O)NCCCCN3CCCC3)[C@H]3C=C[C@@H]2C32CC2)n1 (racemic) [Example 350, (5R*)—N^5-(4-Methyl-oxazol-2-yl)-(6R*)—N^6-(4-pyrrolidino-butyl)-(4S*,7R*)-[4,7-ethenylene-spiro[2.4]heptane]-5,6-dicarboxamide]
94 nM	6330 nM	CC(=O)c1cnc(CNC(=O)[C@H]2[C@H](C(=O)NCCCCN3CCCC3)[C@H]3C=C[C@@H]2C32CC2)s1 (racemic) [Example 351, (5R*)—N^5-[(5-Acetyl-thiazol-2-yl)methyl]-(6R*)—N^6-(4-pyrrolidino-butyl)-(4S*,7R*)-[4,7-ethenylene-spiro[2.4]heptane]-5,6-dicarboxamide]
958 nM	6700 nM	CC(=O)c1cccc(NC(=O)[C@H]2[C@H](C(=O)NCCCCN3CCCC3)[C@H]3C=C[C@@H]2C32CC2)c1 (racemic) [Example 352, (5R*)—N^5-(3-Acetylphenyl)-(6R*)—N^6-(4-pyrrolidino-butyl)-(4S*,7R*)-[4,7-ethenylene-spiro[2.4]heptane]-5,6-dicarboxamide]
256 nM	6900 nM	O=C(NCCCCN1CCCC1)[C@H]1[C@H](C(=O)NCc2ccc(F)cc2Br)[C@@H]2C=C[C@H]1C21CC1 (racemic) [Example 353, (5R*)—N^5-(2-Bromo-4-fluorophenyl-methyl)-(6R*)—N^6-(4-pyrrolidino-butyl)-(4S*,7R*)-[4,7-ethenylene-spiro[2.4]heptane]-5,6-dicarboxamide]
223 nM	7410 nM	O=C(NCCCCN1CCCC1)[C@H]1[C@H](C(=O)NCc2ccc(F)c(Br)c2)[C@@H]2C=C[C@H]1C21CC1 (racemic) [Example 354, (5R*)—N^5-(3-Bromo-4-fluorophenyl-methyl)-(6R*)—N^6-(4-pyrrolidino-butyl)-(4S*,7R*)-[4,7-ethenylene-spiro[2.4]heptane]-5,6-dicarboxamide]
477 nM	7500 nM	O=C(NCCCCN1CCCC1)[C@H]1[C@H](C(=O)NCc2cc(F)cc(F)c2F)[C@@H]2C=C[C@H]1C21CC1 (racemic) [Example 355, (5R*)—N^5-(2,3,5-Trifluorophenyl-methyl)-(6R*)—N^6-(4-pyrrolidino-butyl)-(4S*,7R*)-[4,7-ethenylene-spiro[2.4]heptane]-5,6-dicarboxamide]
948 nM	7710 nM	Cc1nonc1CNC(=O)[C@H]1[C@H](C(=O)NCCCCN2CCCC2)[C@H]2C=C[C@@H]1C21CC1 (racemic) [Example 356, (5R*)—N^5-[(4-Methyl-1,2,5-oxadiazol-3-yl)methyl]-(6R*)—N^6-(4-pyrrolidino-butyl)-(4S*,7R*)-[4,7-ethenylene-spiro[2.4]heptane]-5,6-dicarboxamide]
290 nM	7910 nM	O=C(NCCCCN1CCCC1)[C@H]1[C@H](C(=O)NCc2cccc(C(F)(F)F)c2F)[C@@H]2C=C[C@H]1C21CC1 (racemic) [Example 357, (5R*)—N^5-(2-Fluoro-3-trifluoromethylphenyl-methyl)-(6R*)—N^6-(4-pyrrolidino-butyl)-(4S*,7R*)-[4,7-ethenylene-spiro[2.4]heptane]-5,6-dicarboxamide]
176 nM	7980 nM	Cc1cc(C)cc(CNC(=O)[C@H]2[C@H](C(=O)NCCCCN3CCCC3)[C@H]3C=C[C@@H]2C32CC2)c1 (racemic) [Example 358, (5R*)—N^5-(3,5-Dimethylphenyl-methyl)-(6R*)—N^6-(4-pyrrolidino-butyl)-(4S*,7R*)-[4,7-ethenylene-spiro[2.4]heptane]-5,6-dicarboxamide]
359 nM	8350 nM	CC(=O)c1cccc(CNC(=O)[C@H]2[C@H](C(=O)NCCCCN3CCCC3)[C@H]3C=C[C@@H]2C32CC2)c1 (racemic) [Example 359, (5R*)—N^5-(3-Acetylphenyl-methyl)-(6R*)—N^6-(4-pyrrolidino-butyl)-(4S*,7R*)-[4,7-ethenylene-spiro[2.4]heptane]-5,6-dicarboxamide]
530 nM	8700 nM	O=C(NCCCCN1CCCC1)[C@H]1[C@H](C(=O)NCc2cccc(OC(F)F)c2)[C@@H]2C=C[C@H]1C21CC1 (racemic) [Example 360, (5R*)—N^5-(3-Difluoromethoxyphenyl-methyl)-(6R*)—N^6-(4-pyrrolidino-butyl)-(4S*,7R*)-[4,7-ethenylene-spiro[2.4]heptane]-5,6-dicarboxamide]
330 nM	8870 nM	COc1cc(CNC(=O)[C@H]2[C@H](C(=O)NCCCCN3CCCC3)[C@H]3C=C[C@@H]2C32CC2)ccn1 (racemic) [Example 361, (5R*)—N^5-[(2-Methoxypyridin-4-yl)methyl]-(6R*)—N^6-(4-pyrrolidino-butyl)-(4S*,7R*)-[4,7-ethenylene-spiro[2.4]heptane]-5,6-dicarboxamide]
